From patent publication US20050214412A1, “APPARATUS AND METHOD FOR DELIVERING NUTRITIONAL SUPPLEMENTS WITH BEVERAGE SWEETENERS” (priority 2004, published 2005) come the findings set out here.

The nature of the data set: Proton NMR stability check in deuterium oxide after heating and after sunlight exposure. It counts as physicochemical. The settings on record: with table sugar, Equal, Sweet'N Low and Splenda. As to the method: All ^1H NMR spectra were obtained on a Varian Mercury 300 NMR spectrometer operating at ambient temperature. Solutions were prepared in deuterium oxide solvent (isotopically labeled water). Samples were prepared by dissolving a measured amount of solid in sufficient solvent to produce a total volume of approximately 1 mL. Initial samples were prepared just before spectra were obtained in order to minimize possible premature hydrolysis or attack by microbes in the case of sugar solutions. Samples were later re-examined after heating at 70.0 to 92.0° C. (158 to 198° F.) for 98 minutes and then again after being stored outside on the roof exposed to Central Florida sunlight and heat for 47.3 hours.

The structures appear in SMILES notation.

Regarding `O=C1O[C@H]([C@@H](O)CO)C(O)=C1O` [Vit. C, ascorbic acid], the “chemical compatibility with sweeteners” value was “chemically compatible”.
